≈ marks a conversion by molar mass, not a printed value.
Tested on: Mycobacterium tuberculosis variant bovis
Experiment: Antibacterial activity against Mycobacterium bovis BCG assessed as reduction in cell viability measured after 14 days by microdrop agar proportion test
Format: functional
Conditions: 336 h, time 14 day

COC(=O)c1ccc(C(=O)Oc2ccc3c(c2)OC(C)(C)C=C3C)cc1 was tested, and the MIC was 2 µg/mL (≈ 5.68 µM).

Reference: ChEMBL document CHEMBL5252530, “Biological importance of structurally diversified chromenes” (Eur J Med Chem, 2016)
